Among the data in ChEMBL document CHEMBL5113373, “Tryptophan derived natural marine alkaloids and synthetic derivatives as promising antimicrobial agents” (Eur J Med Chem, 2021) are MIC, IC50 and Activity values, retold here.

Converted amounts (≈) assume the structure as drawn.

The test system of one test is Bacillus subtilis. In words: Antibacterial activity against Bacillus subtilis assessed as bacterial growth inhibition. It is filed as functional, organism-based.
Test [1] relates to Escherichia coli. In words: Antibacterial activity against Escherichia coli assessed as bacterial growth inhibition. It counts as functional.
In test [2] the test system is Escherichia coli. In words: Antibiofilm activity against Escherichia coli K12 ER2718 assessed as inhibition of biofilm formation incubated for 24 hrs by crystal violet method. It is filed as functional, organism-based. As to conditions: K12 ER2718, 24 h.
The test system of test [3] is Staphylococcus aureus. In words: Antibiofilm activity against Staphylococcus aureus ATCC 29213 assessed as inhibition of biofilm formation incubated for 24 hrs by crystal violet method. It is filed as functional, organism-based. As to conditions: ATCC 29213, 24 h.
In test [4] the test system is Staphylococcus aureus. Briefly: Antimicrobial activity against methicillin-resistant Staphylococcus aureus assessed as microbial growth inhibition by broth microdilution method. It is filed as functional.
A short description of test [5]: Inhibition of Methicillin-resistant Staphylococcus aureus pyruvate kinase assessed as measuring absorbance of NADH coupled to L-LDH using phospho enol pyruvate in presence of ADP by spectrophotometry.
The subject of a further test is Acinetobacter baumannii. Briefly: Antibiofilm activity against Acinetobacter baumannii ATCC 19606 assessed as inhibition of biofilm formation at 100 uM incubated for 24 hrs by crystal violet method relative to control. It is filed as functional. Also on record: scale not given: the % may be the effect or the level left.
For the next test, the system named is Corynebacterium xerosis. In words: Antimicrobial activity against Corynebacterium xerosis assessed as microbial growth inhibition. It counts as functional.
The next test deals with Micrococcus luteus. Briefly: Antimicrobial activity against Sarcina lutea assessed as microbial growth inhibition. It counts as functional.
Test [6] relates to Staphylococcus aureus. Briefly: Antibiofilm activity against Staphylococcus aureus ATCC 6538 assessed as inhibition of biofilm formation incubated for 24 hrs by crystal violet method. It is filed as functional, organism-based. Conditions: ATCC 6538, 24 h.

As to `CO[C@@H]1c2c[nH]c3ccc(O)c(c23)C(c2c[nH]c3ccc(O)cc23)=N[C@@H]1C(C)=O`, the MIC with Bacillus subtilis and with Escherichia coli [1] was 41.1 µM (≈ 16 µg/mL) in each case.

Turning to `C=CC(C)(C)c1[nH]c2cc(Br)ccc2c1CCNC` [DESFORMYLFLUSTRABROMINE], the IC50 – broadly, the point on the concentration scale where inhibition reaches its midpoint – in the test on Escherichia coli [2] came out at 174 µM; in the test with Staphylococcus aureus [3] it was 70 µM.

As for `O=C1NC[C@@H](c2c[nH]c3cc(Br)ccc23)N[C@H]1c1c[nH]c2cc(Br)ccc12` (relative stereo) [CIS-3,4-DIHYDROHAMACANTHIN B], in the test with Staphylococcus aureus [4], the MIC (as a rule, the least concentration at which growth counts as inhibited) came out at 0.016 µM (≈ 0.00781 µg/mL). Besides, the IC50 in test [5] is 5.1 µM.

As to `C=CC(C)(C)[C@@]12CCN(C)C1=Nc1cc(Br)ccc12` [FLUSTRAMINE C], the Activity with Acinetobacter baumannii was found to be 30%.

Take `O=C1N=C(C(=O)c2c[nH]c3ccc(Br)cc23)N/C1=C\c1c[nH]c2ccccc12`: the MIC in the test with Corynebacterium xerosis and in the test on Micrococcus luteus was 36.9 µM (≈ 16 µg/mL) in each case.

In the case of `COCCn1cc(-c2nc(-c3c[nH]c4ccccc34)cs2)c2cc(F)ccc21`, the IC50 in the test with Staphylococcus aureus [6] was 700 nM.
